According to US20070219254A1, “Therapeutic Compounds: Pyridine N-Oxide Scaffold” (priority 2004, published 2007):
Like-named read-outs stand apart in the source and are kept apart here.

Legend:
Human CB1 receptor [1] = molecular target: T1, Human CB1 receptor (Homo sapiens, UniProt P21554); experiment: hCB1 receptor binding (3H-CP55,940 displacement)
T1 construct: purchased Receptor Biology
Description: Human CB1 receptor from Receptor Biology (hCB1) or human CB2 receptor from BioSignal (hCB2) membranes are thawed at 37° C., passed 3 times through a 25-gauge blunt-end needle, diluted in the cannabinoid binding buffer (50 mM Tris, 2.5 mM EDTA, 5 mM MgCl2, and 0.5 mg/mL BSA fatty acid free, pH 7.4) and aliquots containing the appropriate amount of protein are distributed in 96-well plates. The IC50 of the compounds of the invention at hCB1 and hCB2 are evaluated from 10-point dose-response curves done with ^3H-CP55,940 at 20000 to 25000 dpm per well (0.17-0.21 nM) in a final volume of 300 μl. The total and non-specific binding are determined in the absence and presence of 0.2 μM of HU210 respectively. The plates are vortexed and incubated for 60 minutes at room temperature, filtered through Unifilters GF/B (presoaked in 0.1% polyethyleneimine) with the Tomtec or Packard harvester using 3 mL of wash buffer (50 mM Tris, 5 mM MgCl2, 0.5 mg BSA pH 7.0). The filters are dried for 1 hour at 55° C. The radioactivity (cpm) is counted in a TopCount (Packard) after adding 65 μl/well of MS-20 scintillation liquid.
Based on the above assays, the dissociation constant (Ki) for a particular compound of the invention towards a particular receptor is determined using the following equation: […]
Wherein IC50 is the concentration of the compound of the invention at which 50% displacement has been observed;
[rad] is a standard or reference radioactive ligand concentration at that moment; and
Kd is the dissociation constant of the radioactive ligand towards the particular receptor.

Human CB1 receptor [2] = molecular target: T1, Human CB1 receptor; experiment: hCB1 GTPγS binding; assay type: biochemical; details: for Emax: maximal stimulation defined by 10 μM Win 55,212-2
Description: Human CB1 receptor from Receptor Biology (hCB1) or human CB2 receptor membranes (BioSignal) are thawed at 37° C., passed 3 times through a 25-gauge blunt-end needle and diluted in the GTPγS binding buffer (50 mM Hepes, 20 mM NaOH, 100 mM NaCl, 1 mM EDTA, 5 mM MgCl2, pH 7.4, 0.1% BSA). The EC50 and Emax of the compounds of the invention are evaluated from 10-point dose-response curves done in 300 μl with the appropriate amount of membrane protein and 100000-130000 dpm of GTPg^35S per well (0.11-0.14 nM). The basal and maximal stimulated binding is determined in absence and presence of 1 μM (hCB2) or 10 μM (hCB1) Win 55,212-2 respectively. The membranes are pre-incubated for 5 minutes with 56.25 μM (hCB2) or 112.5 μM (hCB1) GDP prior to distribution in plates (15 μM (hCB2) or 30 μM (hCB1) GDP final). The plates are vortexed and incubated for 60 minutes at room temperature, filtered on Unifilters GF/B (presoaked in water) with the Tomtec or Packard harvester using 3 ml of wash buffer (50 mM Tris, 5 mM MgCl2, 50 mM NaCl, pH 7.0). The filters are dried for 1 hour at 55° C. The radioactivity (cpm) is counted in a TopCount (Packard) is after adding 65 μl/well of MS-20 scintillation liquid. Antagonist reversal studies are done in the same way except that (a) an agonist dose-response curve is done in the presence of a constant concentration of antagonist, or (b) an antagonist dose-response curve is done in the presence of a constant concentration of agonist.

[3] = hCB1 membranes, 3H-CP55,940, Ki=IC50/(1+[rad]/Kd), read-out: Ki (hCB1)
[4] = hCB1 membranes, GTPγ35S, read-out: EC50 (hCB1)

T1 sequence (P21554 whole entry): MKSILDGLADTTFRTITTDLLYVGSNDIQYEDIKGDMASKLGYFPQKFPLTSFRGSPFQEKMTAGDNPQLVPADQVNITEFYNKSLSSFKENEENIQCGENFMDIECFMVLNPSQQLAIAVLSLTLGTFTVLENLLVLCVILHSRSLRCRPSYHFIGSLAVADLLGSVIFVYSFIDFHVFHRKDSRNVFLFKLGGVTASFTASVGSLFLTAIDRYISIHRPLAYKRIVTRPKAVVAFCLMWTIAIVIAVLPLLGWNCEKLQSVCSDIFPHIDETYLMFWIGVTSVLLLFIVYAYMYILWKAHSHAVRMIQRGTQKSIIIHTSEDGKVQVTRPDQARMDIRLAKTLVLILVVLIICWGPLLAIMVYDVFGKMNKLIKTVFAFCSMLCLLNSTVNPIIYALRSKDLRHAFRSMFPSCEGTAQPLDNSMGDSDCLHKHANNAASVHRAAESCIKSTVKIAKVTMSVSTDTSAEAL

Row | SMILES | Ki (Human CB1 receptor [1]) [nM] | EC50 (Human CB1 receptor [2]) [nM] | Emax (Human CB1 receptor [2]; hCB1 membranes) [%] | Ki (Human CB1 receptor [1]; [3]) [nM] | EC50 (Human CB1 receptor [2]; [4]) [nM]
1 | O=C(Nc1ccc[n+]([O-])c1C(=O)NCC1CCCCC1)c1cccc2ccccc12 [Example 7, N-(Cyclohexylmethyl)-3-[(1-naphthalenylcarbonyl)amino]-1-oxide-2-pyridinecarboxamide] | 47 | 506 | 128 |  | 
2 | Cc1ccc(C(=O)Nc2ccc[n+]([O-])c2C(=O)NCC2CCCCC2)c2ccccc12 [Example 8, N-(Cyclohexylmethyl)-3-[(4-methyl-1-naphthalenylcarbonyl)amino]-1-oxide-2-pyridinecarboxamide] |  |  | 122 | 42 | 191
3 | Cc1ccc(C(=O)Nc2ccc[n+]([O-])c2C(=O)NCC2CCC2)c2ccccc12 [Example 2, N-(Cyclobutylmethyl)-3-[[(4-methyl-1-naphthalenyl)carbonyl]amino]-1-oxide-2-pyridinecarboxamide] |  |  | 106 | 18 | 167
